SMILES strings stand for the structures. Calls of active or inactive are those of the source.

Test [1] has as its system HEK293. Kind of test: NOD2 signaling inhibitors in MDP-stimulated cells, cell-based, uHTS, luminescence (AID 2001). Particulars: Homo sapiens. In kind it is functional.
In test [2] the test system is BJ. Kind of test: cells. The class given is functional, cell-based. Particulars: Homo sapiens.
Test [3] concerns the target T1, Microphthalmia-associated transcription factor (Homo sapiens, UniProt O75030).
T1 sequence (O75030 whole entry): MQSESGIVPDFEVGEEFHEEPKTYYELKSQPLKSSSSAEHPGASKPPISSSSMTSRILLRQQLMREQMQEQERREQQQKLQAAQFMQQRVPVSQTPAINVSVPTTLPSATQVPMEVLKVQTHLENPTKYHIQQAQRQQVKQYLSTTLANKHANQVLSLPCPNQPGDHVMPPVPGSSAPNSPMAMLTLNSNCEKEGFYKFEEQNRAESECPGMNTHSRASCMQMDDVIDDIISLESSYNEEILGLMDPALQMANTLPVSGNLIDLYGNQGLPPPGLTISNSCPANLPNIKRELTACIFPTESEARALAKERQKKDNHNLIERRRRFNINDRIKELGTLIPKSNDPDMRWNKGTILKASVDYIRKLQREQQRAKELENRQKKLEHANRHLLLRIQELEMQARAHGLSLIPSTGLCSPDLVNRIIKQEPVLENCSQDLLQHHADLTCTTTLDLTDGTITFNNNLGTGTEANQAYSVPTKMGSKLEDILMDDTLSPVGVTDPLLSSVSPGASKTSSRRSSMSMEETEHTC
Kind of test: reducers of TRPM1 reporter luminescence, concentration series – cell-based, SK-MEL-5, cherry-picked, set 3, MITF inhibitor project, dose response (AID 493073).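 Note: SK-MEL-5 melanoma cells with luciferase driven by the MITF target TRPM1 promoter.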 In kind it is functional.

In test [4] the test system is BJ. Kind of test: BJ-TERT-LT-ST fibroblast viability loss – cell-based, RAS-independent, luminescence, dose response (AID 1935).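 Note: BJ fibroblasts immortalized with TERT plus LT and ST oncogenes.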 In kind it is functional. Particulars: Homo sapiens.
Test [5] has as its system BJ. Kind of test: BJ-TERT fibroblast viability loss – cell-based, RAS-independent, luminescence, dose response (AID 1933). The class given is functional. Particulars: Homo sapiens.
The nature of test [6]: DRD fibroblast viability loss – cell-based, non-viral oncogenic, luminescence, dose response (AID 1934). The class given is functional. Particulars: Homo sapiens.
In a further test the target is T2, Protein RecA (Mycobacterium tuberculosis, UniProt P9WHJ3).
T2 sequence (P9WHJ3 whole entry): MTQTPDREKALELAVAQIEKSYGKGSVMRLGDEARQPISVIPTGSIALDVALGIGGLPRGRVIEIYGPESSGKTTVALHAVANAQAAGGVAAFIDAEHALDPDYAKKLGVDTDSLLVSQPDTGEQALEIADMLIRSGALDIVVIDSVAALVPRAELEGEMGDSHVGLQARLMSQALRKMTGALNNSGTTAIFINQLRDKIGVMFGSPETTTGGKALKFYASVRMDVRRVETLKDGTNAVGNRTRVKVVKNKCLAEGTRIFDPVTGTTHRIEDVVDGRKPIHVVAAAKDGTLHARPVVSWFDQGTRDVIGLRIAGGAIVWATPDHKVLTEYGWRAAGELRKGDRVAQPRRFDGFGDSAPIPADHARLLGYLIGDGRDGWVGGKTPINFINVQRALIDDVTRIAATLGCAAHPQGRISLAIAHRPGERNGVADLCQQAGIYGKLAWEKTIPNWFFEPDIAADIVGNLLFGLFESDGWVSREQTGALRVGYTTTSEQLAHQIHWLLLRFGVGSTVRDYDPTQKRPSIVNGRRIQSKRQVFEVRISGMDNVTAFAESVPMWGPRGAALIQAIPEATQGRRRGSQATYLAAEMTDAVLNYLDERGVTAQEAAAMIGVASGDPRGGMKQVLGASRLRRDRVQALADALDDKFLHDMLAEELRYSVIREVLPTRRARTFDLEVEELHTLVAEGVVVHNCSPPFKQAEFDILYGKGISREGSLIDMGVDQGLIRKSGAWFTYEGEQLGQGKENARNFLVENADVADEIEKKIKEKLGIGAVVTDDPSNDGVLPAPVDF
Kind of test: Fluorescence Cell-Free Homogeneous Dose Retest to Identify Inhibitors of RecA-Intein Splicing Activity. [Related pubchem assays (depositor defined):AID2097, AID2223, AID489010, AID492950]. The class given is functional.

Test [7] concerns HEK293. Kind of test: inhibition of NOD1-driven NF-kB reporter – cell-based, luminescence, uHTS, primary screen (AID 1578). In kind it is functional. Particulars: Homo sapiens.
For test [8], the target named is DNA damage-inducible transcript 3 protein (Mus musculus, UniProt P35639). In kind it is functional, Cricetulus griseus.
In test [9] the test system is HEK293. Kind of test: cells. Particulars: Homo sapiens. The class given is functional, cell-based.
Test [10] has as its system HEK293. Kind of test: cells. The class given is functional, cell-based. Particulars: Homo sapiens. This is another data set of the same source.
For test [11], the target named is T3, Replicative DNA helicase DnaB (Mycobacterium tuberculosis, UniProt P9WMR3).
T3 sequence (P9WMR3 whole entry): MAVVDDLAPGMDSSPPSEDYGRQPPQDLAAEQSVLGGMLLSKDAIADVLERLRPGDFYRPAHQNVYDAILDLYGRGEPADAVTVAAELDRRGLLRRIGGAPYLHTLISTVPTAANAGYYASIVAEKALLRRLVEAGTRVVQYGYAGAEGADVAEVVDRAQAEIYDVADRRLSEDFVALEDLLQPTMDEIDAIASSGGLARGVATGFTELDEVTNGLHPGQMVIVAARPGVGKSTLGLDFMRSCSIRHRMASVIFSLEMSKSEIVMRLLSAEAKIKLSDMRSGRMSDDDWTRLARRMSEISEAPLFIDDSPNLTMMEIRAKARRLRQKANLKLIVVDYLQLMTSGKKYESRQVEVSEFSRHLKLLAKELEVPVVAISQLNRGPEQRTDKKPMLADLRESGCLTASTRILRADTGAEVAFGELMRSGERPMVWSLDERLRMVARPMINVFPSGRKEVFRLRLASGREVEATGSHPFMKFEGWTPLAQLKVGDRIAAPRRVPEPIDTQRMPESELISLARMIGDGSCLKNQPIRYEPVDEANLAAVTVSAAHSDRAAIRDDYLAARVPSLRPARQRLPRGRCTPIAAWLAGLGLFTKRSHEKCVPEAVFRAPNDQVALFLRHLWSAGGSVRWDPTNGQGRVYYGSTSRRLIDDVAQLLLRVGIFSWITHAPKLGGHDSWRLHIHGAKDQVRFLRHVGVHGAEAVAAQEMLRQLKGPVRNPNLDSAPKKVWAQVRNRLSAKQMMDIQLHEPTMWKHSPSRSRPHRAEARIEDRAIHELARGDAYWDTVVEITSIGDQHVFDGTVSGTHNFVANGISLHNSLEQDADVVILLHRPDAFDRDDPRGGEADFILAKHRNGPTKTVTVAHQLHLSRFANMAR
Kind of test: DnaB intein splicing inhibitors, dose response, biochemical, cell-free fluorescence (AID 449749). The class given is functional.

A short description of test [12]: microbe, parasite or virus in culture. In kind it is functional. Particulars: Mycobacterium tuberculosis.
In test [13] the test system is HEK293. Kind of test: cells. The class given is functional, cell-based. Particulars: Homo sapiens. The source holds these as a separate data set.
Test [14] concerns the target Nucleotide-binding oligomerization domain-containing protein 2 (Homo sapiens, UniProt Q9HC29). Kind of test: inhibition of NOD2-driven NF-kB reporter – cell-based, luminescence, uHTS, HEK293 (AID 1566). In kind it is functional.
Test [15] deals with Dual specificity protein phosphatase 3 (Homo sapiens, UniProt P51452). Put plainly: SAR VHR1 Fluorescent Assay for In Vitro dose response studies Set 2. [Related pubchem assays (depositor defined):AID1654, AID1661, AID1878]. In kind it is functional.
In test [16] the target is T4, Dual specificity protein phosphatase 6 (Rattus norvegicus, UniProt Q64346).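 Note: confirmatory in vitro dose-response testing of MKP-3 inhibition; recombinant His-tagged MKP-3 made in E. coli BL21 with OMFP substrate.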
T4 sequence (Q64346 whole entry): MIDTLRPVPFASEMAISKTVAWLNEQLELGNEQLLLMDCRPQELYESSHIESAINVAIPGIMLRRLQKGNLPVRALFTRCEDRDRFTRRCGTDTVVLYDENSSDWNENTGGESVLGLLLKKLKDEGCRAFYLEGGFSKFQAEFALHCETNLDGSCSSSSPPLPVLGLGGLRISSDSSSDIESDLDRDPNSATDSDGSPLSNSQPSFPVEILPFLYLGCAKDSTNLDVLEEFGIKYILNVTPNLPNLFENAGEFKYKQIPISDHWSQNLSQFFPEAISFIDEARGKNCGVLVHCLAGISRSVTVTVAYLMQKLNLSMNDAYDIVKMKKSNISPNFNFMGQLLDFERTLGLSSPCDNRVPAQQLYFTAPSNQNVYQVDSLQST
The class given is functional.

For test [17], the target named is T5, Tyrosine-protein phosphatase non-receptor type 7 (Homo sapiens, UniProt P35236).
T5 sequence (P35236 whole entry): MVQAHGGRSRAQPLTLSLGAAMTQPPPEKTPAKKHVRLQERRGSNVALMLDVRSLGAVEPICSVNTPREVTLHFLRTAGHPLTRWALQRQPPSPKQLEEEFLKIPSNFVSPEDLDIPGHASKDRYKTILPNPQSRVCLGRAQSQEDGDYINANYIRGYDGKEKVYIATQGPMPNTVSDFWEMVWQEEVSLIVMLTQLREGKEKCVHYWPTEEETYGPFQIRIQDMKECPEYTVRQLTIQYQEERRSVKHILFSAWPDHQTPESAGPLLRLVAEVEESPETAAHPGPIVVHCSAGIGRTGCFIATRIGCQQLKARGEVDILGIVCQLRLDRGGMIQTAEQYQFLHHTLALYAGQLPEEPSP
Kind of test: redox-active compounds inhibiting HePTP phosphatase – biochemical, fluorescence, mechanism study (AID 2068). The class given is functional.

Another test deals with Integrin alpha-L (Mus musculus, UniProt P24063). Kind of test: modulators of CD8 T cell-vesicle binding, dose response, powder samples, mouse 2C CD8+ cells (AID 504565). The class given is functional.
Sequence of Integrin alpha-L (P24063 whole entry): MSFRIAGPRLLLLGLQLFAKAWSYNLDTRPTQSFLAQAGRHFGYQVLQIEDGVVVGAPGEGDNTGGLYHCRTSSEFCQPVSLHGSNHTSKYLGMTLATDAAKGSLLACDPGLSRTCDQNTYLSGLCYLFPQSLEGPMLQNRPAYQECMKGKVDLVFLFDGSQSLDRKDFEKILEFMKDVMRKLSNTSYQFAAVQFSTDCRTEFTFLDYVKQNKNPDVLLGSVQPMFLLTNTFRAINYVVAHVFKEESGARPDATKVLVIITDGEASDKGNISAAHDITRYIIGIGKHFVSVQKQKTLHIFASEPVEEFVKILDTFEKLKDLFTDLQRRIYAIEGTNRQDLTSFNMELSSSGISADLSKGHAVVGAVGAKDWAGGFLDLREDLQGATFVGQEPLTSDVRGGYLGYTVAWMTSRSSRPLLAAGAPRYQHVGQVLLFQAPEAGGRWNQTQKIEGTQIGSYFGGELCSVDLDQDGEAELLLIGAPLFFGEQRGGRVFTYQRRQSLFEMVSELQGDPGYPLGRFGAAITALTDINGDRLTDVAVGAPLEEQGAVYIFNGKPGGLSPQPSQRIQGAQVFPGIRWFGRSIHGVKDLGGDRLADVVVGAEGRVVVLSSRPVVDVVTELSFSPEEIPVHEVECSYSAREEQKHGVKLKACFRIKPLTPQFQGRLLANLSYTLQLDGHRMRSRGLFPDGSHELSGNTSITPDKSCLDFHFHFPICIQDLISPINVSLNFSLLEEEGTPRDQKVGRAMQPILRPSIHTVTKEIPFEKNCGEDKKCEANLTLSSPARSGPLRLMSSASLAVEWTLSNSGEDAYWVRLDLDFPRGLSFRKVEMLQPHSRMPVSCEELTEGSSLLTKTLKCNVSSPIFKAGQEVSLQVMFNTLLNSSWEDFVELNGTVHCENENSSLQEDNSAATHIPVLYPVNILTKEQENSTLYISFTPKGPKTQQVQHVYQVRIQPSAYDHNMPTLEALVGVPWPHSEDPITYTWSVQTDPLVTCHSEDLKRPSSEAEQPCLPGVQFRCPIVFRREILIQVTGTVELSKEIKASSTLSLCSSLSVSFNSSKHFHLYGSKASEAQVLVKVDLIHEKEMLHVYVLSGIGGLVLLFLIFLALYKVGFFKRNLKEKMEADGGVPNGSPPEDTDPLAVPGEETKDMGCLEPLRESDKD

Sequence of DNA damage-inducible transcript 3 protein (P35639 whole entry): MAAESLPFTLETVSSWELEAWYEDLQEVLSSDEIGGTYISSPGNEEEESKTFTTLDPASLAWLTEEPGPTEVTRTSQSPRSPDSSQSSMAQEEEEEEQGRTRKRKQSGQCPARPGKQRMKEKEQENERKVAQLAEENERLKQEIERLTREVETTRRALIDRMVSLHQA
Sequence of Dual specificity protein phosphatase 3 (P51452 whole entry): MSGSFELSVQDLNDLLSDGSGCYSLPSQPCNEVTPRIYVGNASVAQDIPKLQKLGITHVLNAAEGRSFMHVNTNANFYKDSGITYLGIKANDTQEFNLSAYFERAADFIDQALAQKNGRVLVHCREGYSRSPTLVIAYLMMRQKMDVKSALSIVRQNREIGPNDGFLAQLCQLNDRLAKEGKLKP
Sequence of Nucleotide-binding oligomerization domain-containing protein 2 (Q9HC29 whole entry, the tested form may be a part): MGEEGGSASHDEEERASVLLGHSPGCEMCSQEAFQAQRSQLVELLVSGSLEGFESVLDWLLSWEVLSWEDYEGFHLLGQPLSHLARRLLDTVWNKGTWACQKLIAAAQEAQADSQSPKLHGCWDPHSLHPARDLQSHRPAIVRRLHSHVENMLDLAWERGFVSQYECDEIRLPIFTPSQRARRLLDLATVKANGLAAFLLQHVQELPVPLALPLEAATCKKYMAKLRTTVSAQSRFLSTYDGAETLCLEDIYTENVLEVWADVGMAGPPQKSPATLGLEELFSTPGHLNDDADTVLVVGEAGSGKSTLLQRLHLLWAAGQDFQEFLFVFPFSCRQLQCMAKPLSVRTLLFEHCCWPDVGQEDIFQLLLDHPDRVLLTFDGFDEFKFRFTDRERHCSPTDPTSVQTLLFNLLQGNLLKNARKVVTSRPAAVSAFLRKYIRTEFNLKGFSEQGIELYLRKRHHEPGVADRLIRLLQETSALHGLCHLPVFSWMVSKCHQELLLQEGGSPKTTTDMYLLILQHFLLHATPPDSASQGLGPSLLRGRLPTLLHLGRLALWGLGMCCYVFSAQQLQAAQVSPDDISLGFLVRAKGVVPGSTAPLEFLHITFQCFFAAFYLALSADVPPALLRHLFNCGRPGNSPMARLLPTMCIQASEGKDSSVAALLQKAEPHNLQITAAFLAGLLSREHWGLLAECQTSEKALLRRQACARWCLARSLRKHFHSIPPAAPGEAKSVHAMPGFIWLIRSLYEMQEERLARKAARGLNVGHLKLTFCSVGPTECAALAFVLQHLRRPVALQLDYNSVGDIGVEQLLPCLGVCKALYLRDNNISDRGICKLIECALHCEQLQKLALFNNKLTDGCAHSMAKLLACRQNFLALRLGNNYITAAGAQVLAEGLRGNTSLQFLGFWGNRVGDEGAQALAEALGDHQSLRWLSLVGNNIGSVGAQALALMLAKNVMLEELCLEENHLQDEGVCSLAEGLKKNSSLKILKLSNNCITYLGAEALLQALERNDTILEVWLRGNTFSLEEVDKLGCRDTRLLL

For orientation: IC50 means the concentration needed to halve the response being measured. In general, EC50 refers to the midpoint of the concentration-response curve. The AC50 is the midpoint of the concentration-response curve, whichever way the signal moves. `O=C(CCl)Nc1cn(-c2ccccc2)nc1-c1ccccc1`: the half-inhibitory concentration (IC50) was 9.25 µM (active) in the test with HEK293 [1], > 20 µM (inactive) in the test with HEK293 [9], > 20 µM (inactive) with HEK293 [10] and 5.28 µM (active) with HEK293 [13]. Further, the EC50 was 14.4 µM (active) in the test on BJ [2]; > 150 µM (inconclusive) in the test with BJ [4]; 8.36 µM (active) in the test on BJ [5]; 16.2 µM (active) in test [6]; 6.32 µM (active) on Protein RecA; 4.78 µM (active) with HEK293 [7]. Also, the EC50 in test [14] is > 20 µM (inactive). The AC50 in [3] is 14.5 µM (active); in test [11], 13.1 µM (active). In [8], the “Absolute IC50 (CHOP)” value amounted to 10 µM. In test [12], the CC50 is 6.92 µM (active).

`Cc1ccc(NC(=O)CN2C(=O)S/C(=C\c3ccc(C(=O)O)cc3)C2=O)cc1`: the values for the IC50 in test [15], in [16] and in test [17] were > 100 µM (inactive), > 100 µM (inactive) and 14.4 µM (active), respectively.

`O=C(COC(=O)C12CC3CC(CC(Br)(C3)C1)C2)Nc1cccc(S(=O)(=O)N2CCOCC2)c1`: the EC50 at Integrin alpha-L was 1.21 µM (active).

Source of the values: ChEMBL document CHEMBL1201862, “PubChem BioAssay data set” (2004).
